The text below walks through data of US20090074878A1, “Non-Toxic Water Soluble Inorganice Antimicrobal Polymer and Related Methods” (priority 2005, published 2009).

The assay deals with E coli O157:H7. Put plainly: Effect of pH on Concrobium activity, lysis under light microscope (Example 5). To be noted: one million CFU. It counts as cell-based. As for the experimental part:
One million CFU of E coli O157:H7 were incubated with the following and samples of each were observed under a light microscope:
1. 1 mL of Concrobium, normal saline and 0.1 N (normal) sodium hydroxide 2. 1 mL of Concrobium and normal saline 3. 1 mL normal saline

Consider `[Na+].[OH-]` [sodium hydroxide], for which the “lysing effect on E coli in suspension” value is on record as “lysed the E. coli in suspension”.
